The source of these data is article PMC5218480 (PLoS ONE, 2017).

The assay deals with MV-4-11 cells. In words: Gene expression microarray analysis (Affymetrix PrimeView) and GSEA. Format: cell-based, human. More on the design: RFU PODN (11730768_x_at) / Fold change /veh PODN (11730768_x_at) / RFU LINC00158 (11744669_a_at) / Fold change /veh LINC00158 (11744669_a_at) / RFU DUSP10 (11751237_a_at) / Fold change /veh DUSP10 (11751237_a_at) / RFU ID3 (11757404_x_at) / Fold change /veh ID3 (11757404_x_at) / RFU PLEKHG5 (11737974_s_at) / Fold change /veh PLEKHG5 (11737974_s_at) / RFU LRRC4B (11730491_at) / Fold change /veh LRRC4B (11730491_at) / RFU GIMAP4 (11747438_a_at) / Fold change /veh GIMAP4 (11747438_a_at) / RFU KRT8 (11758183_x_at) / Fold change /veh KRT8 (11758183_x_at) / RFU CNN1 (11734310_a_at) / Fold change /veh CNN1 (11734310_a_at) / RFU VPS37D (11726825_at) / Fold change /veh VPS37D (11726825_at) / RFU C10orf10 (11716522_x_at) / Fold change /veh C10orf10 (11716522_x_at) / RFU KIR2DL2 /// KIR2DL4 /// KIR2DL5A /// KIR2DL5B /// KIR2DS1 /// KIR2DS2 /// KIR2DS3 /// KIR2DS4 /// KIR3DL3 /// KIR3DL3 /// KIR3DS1 (11738374_at) / Fold change /veh KIR2DL2 /// KIR2DL4 /// KIR2DL5A /// KIR2DL5B /// KIR2DS1 /// KIR2DS2 /// KIR2DS3 /// KIR2DS4 /// KIR3DL3 /// KIR3DL3 /// KIR3DS1 (11738374_at) / RFU C1QL1 (11718748_at) / Fold change /veh C1QL1 (11718748_at) / RFU TMPRSS4 (11747572_a_at) / Fold change /veh TMPRSS4 (11747572_a_at) / RFU HAMP (11756126_x_at) / Fold change /veh HAMP (11756126_x_at) / RFU RNFT2 (11725882_a_at) / Fold change /veh RNFT2 (11725882_a_at) / RFU NR4A2 (11747474_a_at) / Fold change /veh NR4A2 (11747474_a_at) / RFU ABCC12 (11746883_a_at) / Fold change /veh ABCC12 (11746883_a_at) / RFU TMEM136 (11760407_x_at) / Fold change /veh TMEM136 (11760407_x_at) / RFU CLDN22 /// WWC2 (11732394_at) / Fold change /veh CLDN22 /// WWC2 (11732394_at) / RFU HLA-DPB1 (11760878_x_at) / Fold change /veh HLA-DPB1 (11760878_x_at) / RFU SPINT1 (11716480_a_at) / Fold change /veh SPINT1 (11716480_a_at) / RFU GAP43 (11754022_s_at) / Fold change /veh GAP43 (11754022_s_at) / RFU A4GNT (11735810_at) / Fold change /veh A4GNT (11735810_at) / RFU PRB3 (11715151_x_at) / Fold change /veh PRB3 (11715151_x_at) / RFU TUBB4B (11761932_at) / Fold change /veh TUBB4B (11761932_at) / RFU CAPN14 (11732068_a_at) / Fold change /veh CAPN14 (11732068_a_at) / RFU TMCC2 (11721928_a_at) / Fold change /veh TMCC2 (11721928_a_at) / RFU IRGQ (11745062_a_at) / Fold change /veh IRGQ (11745062_a_at) / RFU FAM174B (11720279_a_at) / Fold change /veh FAM174B (11720279_a_at) / RFU TMPRSS4 (11748680_a_at) / Fold change /veh TMPRSS4 (11748680_a_at) / RFU FAM212B (11763350_a_at) / Fold change /veh FAM212B (11763350_a_at) / RFU PLEKHG5 (11743358_a_at) / Fold change /veh PLEKHG5 (11743358_a_at) / RFU ZSCAN30 (11745921_a_at) / Fold change /veh ZSCAN30 (11745921_a_at) / RFU CMKLR1 (11741424_a_at) / Fold change /veh CMKLR1 (11741424_a_at) / RFU LOC101060620 /// MAPK8IP1 (11723275_at) / Fold change /veh LOC101060620 /// MAPK8IP1 (11723275_at) / RFU SPTSSB (11747773_x_at) / Fold change /veh SPTSSB (11747773_x_at) / RFU PRSS12 (11739890_at) / Fold change /veh PRSS12 (11739890_at) / RFU BIN1 (11741810_x_at) / Fold change /veh BIN1 (11741810_x_at) / RFU WNT11 (11732464_a_at) / Fold change /veh WNT11 (11732464_a_at) / RFU C10orf10 (11716521_a_at) / Fold change /veh C10orf10 (11716521_a_at) / RFU C5orf56 (11738089_at) / Fold change /veh C5orf56 (11738089_at) / RFU CYB561 (11721691_x_at) / Fold change /veh CYB561 (11721691_x_at) / RFU ANKRD19P (11752326_a_at) / Fold change /veh ANKRD19P (11752326_a_at) / RFU OR2T12 /// OR2T33 /// OR2T8 (11738714_s_at) / Fold change /veh OR2T12 /// OR2T33 /// OR2T8 (11738714_s_at) / RFU VCAN (11748164_a_at) / Fold change /veh VCAN (11748164_a_at) / RFU JSRP1 (11732532_at) / Fold change /veh JSRP1 (11732532_at) / RFU KRTAP10-11 (11738290_x_at) / Fold change /veh KRTAP10-11 (11738290_x_at) / RFU MYO3A (11730013_a_at) / Fold change /veh MYO3A (11730013_a_at) / RFU EBF3 (11725865_a_at) / Fold change /veh EBF3 (11725865_a_at) / RFU CAMK2N1 (11719241_x_at) / Fold change /veh CAMK2N1 (11719241_x_at) / RFU C5orf56 (11738088_a_at) / Fold change /veh C5orf56 (11738088_a_at) / RFU OLFML3 (11715873_a_at) / Fold change /veh OLFML3 (11715873_a_at) / RFU LOC100653217 /// NTM (11731650_a_at) / Fold change /veh LOC100653217 /// NTM (11731650_a_at) / RFU MAPK11 (11762145_a_at) / Fold change /veh MAPK11 (11762145_a_at) / RFU FIZ1 (11724087_x_at) / Fold change /veh FIZ1 (11724087_x_at) / RFU OASL (11726364_x_at) / Fold change /veh OASL (11726364_x_at) / RFU SOX15 (11748057_x_at) / Fold change /veh SOX15 (11748057_x_at) / RFU CD79A (11719716_a_at) / Fold change /veh CD79A (11719716_a_at) / RFU HIST1H1D (11736915_at) / Fold change /veh HIST1H1D (11736915_at) / RFU CASKIN2 (11723855_a_at) / Fold change /veh CASKIN2 (11723855_a_at) / RFU LOC730098 (11760151_x_at) / Fold change /veh LOC730098 (11760151_x_at) / RFU OR4N2 (11742367_at) / Fold change /veh OR4N2 (11742367_at) / RFU PRRT2 (11749266_a_at) / Fold change /veh PRRT2 (11749266_a_at) / RFU SNX32 (11753110_a_at) / Fold change /veh SNX32 (11753110_a_at) / RFU CDHR5 (11726645_a_at) / Fold change /veh CDHR5 (11726645_a_at) / RFU RCAN1 (11760418_a_at) / Fold change /veh RCAN1 (11760418_a_at) / RFU FAM167A (11723789_a_at) / Fold change /veh FAM167A (11723789_a_at) / RFU FAM26E (11764081_at) / Fold change /veh FAM26E (11764081_at) / RFU ISYNA1 (11749810_s_at) / Fold change /veh ISYNA1 (11749810_s_at) / RFU ACY1 (11761880_at) / Fold change /veh ACY1 (11761880_at) / RFU 11764098_at / Fold change /veh 11764098_at / RFU SAMD14 (11745864_x_at) / Fold change /veh SAMD14 (11745864_x_at) / RFU NPB (11741838_a_at) / Fold change /veh NPB (11741838_a_at) / RFU TMPRSS6 (11731388_a_at) / Fold change /veh TMPRSS6 (11731388_a_at) / RFU KRTAP10-2 (11738614_at) / Fold change /veh KRTAP10-2 (11738614_at) / RFU ARHGAP8 /// PRR5-ARHGAP8 (11727945_x_at) / Fold change /veh ARHGAP8 /// PRR5-ARHGAP8 (11727945_x_at) / RFU KRTAP5-7 /// NADSYN1 (11734609_at) / Fold change /veh KRTAP5-7 /// NADSYN1 (11734609_at) / RFU RASL12 (11751679_a_at) / Fold change /veh RASL12 (11751679_a_at) / RFU CDKN2B (11736163_a_at) / Fold change /veh CDKN2B (11736163_a_at) / RFU PRF1 (11729649_at) / Fold change /veh PRF1 (11729649_at) / RFU, ZNF638 /// ZNF638-IT1 / Fold change vs veh, ZNF638 /// ZNF638-IT1 / RFU, PANK3 / Fold change vs veh, PANK3 / RFU, SH3YL1 / Fold change vs veh, SH3YL1 / RFU, ZEB2 / Fold change vs veh, ZEB2 / RFU, NRIP1 / Fold change vs veh, NRIP1 / RFU, PTTG1IP / Fold change vs veh, PTTG1IP / RFU, CAPN2 / Fold change vs veh, CAPN2 / RFU, MED14 / Fold change vs veh, MED14 / RFU, SNORA58 / Fold change vs veh, SNORA58 / RFU, C1orf63 / Fold change vs veh, C1orf63 / RFU, LRRFIP1 / Fold change vs veh, LRRFIP1 / RFU, NDUFAF7 / Fold change vs veh, NDUFAF7 / RFU, SLC12A2 / Fold change vs veh, SLC12A2 / RFU, IBTK / Fold change vs veh, IBTK / RFU, ESF1 / Fold change vs veh, ESF1 / Fold change vs veh, TMEM50B / RFU, TAOK1 / Fold change vs veh, TAOK1 / RFU, ACBD3 / Fold change vs veh, ACBD3 / RFU, TMA16 / Fold change vs veh, TMA16 / RFU, RWDD3 / Fold change vs veh, RWDD3 / RFU, BCAT1 / Fold change vs veh, BCAT1 / RFU, EDEM3 / Fold change vs veh, EDEM3 / RFU, TMEM33 / Fold change vs veh, TMEM33 / RFU, WDR75 / Fold change vs veh, WDR75 / RFU, AHCTF1 / Fold change vs veh, AHCTF1 / RFU, TFRC / Fold change vs veh, TFRC / RFU, ZDHHC17 / Fold change vs veh, ZDHHC17 / RFU, NOM1 / Fold change vs veh, NOM1 / RFU, ARL8B / Fold change vs veh, ARL8B / RFU, ZBTB11 / Fold change vs veh, ZBTB11 / RFU, TAMM41 / Fold change vs veh, TAMM41 / RFU, KIAA1704 /// LOC100996395 / Fold change vs veh, KIAA1704 /// LOC100996395 / RFU, ING1 / Fold change vs veh, ING1 / RFU, TRMT61B / Fold change vs veh, TRMT61B / RFU, FUBP3 / Fold change vs veh, FUBP3 / RFU, TP53 / Fold change vs veh, TP53 / RFU, TNKS2 / Fold change vs veh, TNKS2 / RFU, ZFP14 / Fold change vs veh, ZFP14 / RFU, ACTR2 / Fold change vs veh, ACTR2 / RFU, PPP3R1 / Fold change vs veh, PPP3R1 / RFU, PIK3R1 / Fold change vs veh, PIK3R1 / RFU, HNRNPA1 / Fold change vs veh, HNRNPA1 / RFU, RNF170 / Fold change vs veh, RNF170 / RFU, ZNF28 / Fold change vs veh, ZNF28 / RFU, RNGTT / Fold change vs veh, RNGTT / RFU, OGT / Fold change vs veh, OGT / RFU, BRD1 / Fold change vs veh, BRD1 / RFU, MARS / Fold change vs veh, MARS / RFU, ZNF655 / Fold change vs veh, ZNF655 / RFU, FAHD1 / Fold change vs veh, FAHD1 / RFU, BDP1 / Fold change vs veh, BDP1 / RFU, LRRCC1 / Fold change vs veh, LRRCC1 / RFU, ARID1A / Fold change vs veh, ARID1A / RFU, ZNF146 / Fold change vs veh, ZNF146 / RFU, ZNF330 / Fold change vs veh, ZNF330 / RFU, GPN3 / Fold change vs veh, GPN3 / RFU, C9orf123 / Fold change vs veh, C9orf123 / RFU, N4BP2L2 / Fold change vs veh, N4BP2L2 / RFU, ARFIP1 / Fold change vs veh, ARFIP1 / RFU, FAM179B / Fold change vs veh, FAM179B / RFU, BCL10 / Fold change vs veh, BCL10 / RFU, UHRF1BP1L / Fold change vs veh, UHRF1BP1L / RFU, BET1 / Fold change vs veh, BET1 / RFU, CNOT2 / Fold change vs veh, CNOT2 / RFU, ZNF268 / Fold change vs veh, ZNF268 / Fold change vs veh, ZNF507 / RFU, DGCR2 / Fold change vs veh, DGCR2 / RFU, WDSUB1 / Fold change vs veh, WDSUB1 / Fold change vs veh, HSP90B1 /// MIR3652 / RFU, ADSS / Fold change vs veh, ADSS / RFU, GK / Fold change vs veh, GK / RFU, ZNF148 / Fold change vs veh, ZNF148 / RFU, TAF9 / Fold change vs veh, TAF9 / RFU, SLC1A5 / Fold change vs veh, SLC1A5 / RFU, SLMO2 / Fold change vs veh, SLMO2 / RFU, ABCC4 / Fold change vs veh, ABCC4 / RFU, LOC101060439 /// RAP1B / Fold change vs veh, LOC101060439 /// RAP1B / RFU, RFX7 / Fold change vs veh, RFX7 / RFU, GTPBP10 / Fold change vs veh, GTPBP10 / RFU, CNEP1R1 / Fold change vs veh, CNEP1R1 / RFU, BIVM-ERCC5 /// ERCC5 / Fold change vs veh, BIVM-ERCC5 /// ERCC5 / RFU, ILF3 / Fold change vs veh, ILF3 / RFU 11762660_at / Fold change /veh 11762660_at / RFU VCAN (11757783_s_at) / Fold change /veh VCAN (11757783_s_at) / RFU DDX43 (11728927_at) / Fold change /veh DDX43 (11728927_at) / RFU KRT8 (11758188_x_at) / Fold change /veh KRT8 (11758188_x_at) / RFU NKD1 (11759106_at) / Fold change /veh NKD1 (11759106_at) / RFU SRD5A1 (11742802_a_at) / Fold change /veh SRD5A1 (11742802_a_at) / RFU TPSAB1 /// TPSB2 (11721975_s_at) / Fold change /veh TPSAB1 /// TPSB2 (11721975_s_at) / RFU GSTM3 (11746129_a_at) / Fold change /veh GSTM3 (11746129_a_at) / RFU IL23R (11737362_x_at) / Fold change /veh IL23R (11737362_x_at) / RFU TMEM51 (11727254_a_at) / Fold change /veh TMEM51 (11727254_a_at) / RFU PIWIL2 (11732686_x_at) / Fold change /veh PIWIL2 (11732686_x_at) / RFU ORM1 (11744905_x_at) / Fold change /veh ORM1 (11744905_x_at) / RFU CCDC152 (11743942_at) / Fold change /veh CCDC152 (11743942_at) / RFU ECM1 (11717891_a_at) / Fold change /veh ECM1 (11717891_a_at) / RFU IL23R (11748794_a_at) / Fold change /veh IL23R (11748794_a_at) / RFU TNFAIP8L3 (11732012_x_at) / Fold change /veh TNFAIP8L3 (11732012_x_at) / RFU MBOAT4 (11741988_at) / Fold change /veh MBOAT4 (11741988_at) / RFU 11764193_at / Fold change /veh 11764193_at / RFU TMEM53 (11763286_at) / Fold change /veh TMEM53 (11763286_at) / RFU MAGEB2 (11727129_at) / Fold change /veh MAGEB2 (11727129_at) / RFU TMEM200A (11744735_a_at) / Fold change /veh TMEM200A (11744735_a_at) / RFU CCDC152 (11751479_a_at) / Fold change /veh CCDC152 (11751479_a_at) / RFU FAM211A (11726209_a_at) / Fold change /veh FAM211A (11726209_a_at) / RFU RGS16 (11746705_a_at) / Fold change /veh RGS16 (11746705_a_at) / RFU VCAN (11755009_s_at) / Fold change /veh VCAN (11755009_s_at) / RFU RHOB (11743442_s_at) / Fold change /veh RHOB (11743442_s_at) / RFU RGS16 (11720943_a_at) / Fold change /veh RGS16 (11720943_a_at) / RFU RGS16 (11720944_at) / Fold change /veh RGS16 (11720944_at) / RFU, VPS4B / Fold change vs veh, VPS4B / RFU, CREB1 / Fold change vs veh, CREB1 / RFU, DNAJC13 / Fold change vs veh, DNAJC13 / RFU, GNAQ / Fold change vs veh, GNAQ / RFU, CDK5R1 / Fold change vs veh, CDK5R1 / RFU, ZRANB3 / Fold change vs veh, ZRANB3 / RFU, CUL4A / Fold change vs veh, CUL4A / RFU, CCNY / Fold change vs veh, CCNY / RFU, UFL1 / Fold change vs veh, UFL1 / RFU, COG3 / Fold change vs veh, COG3 / RFU, DIAPH2 / Fold change vs veh, DIAPH2 / RFU, SKA2 / Fold change vs veh, SKA2 / RFU, AFF3 / Fold change vs veh, AFF3 / RFU, LMF1 / Fold change vs veh, LMF1 / RFU, IPO11 / Fold change vs veh, IPO11 / RFU, DFFB / Fold change vs veh, DFFB / RFU, FOXP1 / Fold change vs veh, FOXP1 / RFU, CARD8 / Fold change vs veh, CARD8 / RFU, STRN3 / Fold change vs veh, STRN3 / RFU, ADK / Fold change vs veh, ADK / RFU, RASSF2 / Fold change vs veh, RASSF2 / RFU, WIPF1 / Fold change vs veh, WIPF1 / RFU, LARP1B / Fold change vs veh, LARP1B / RFU, RASA1 / Fold change vs veh, RASA1 / RFU, RB1 / Fold change vs veh, RB1 / RFU, PPFIA1 / Fold change vs veh, PPFIA1 / RFU, MAT2A / Fold change vs veh, MAT2A / RFU, CCT5 / Fold change vs veh, CCT5 / RFU, WDR92 / Fold change vs veh, WDR92 / RFU, CUX1 / Fold change vs veh, CUX1 / RFU, TTC7A / Fold change vs veh, TTC7A / RFU, TMEM135 / Fold change vs veh, TMEM135 / RFU, DEPTOR / Fold change vs veh, DEPTOR / RFU, CPM / Fold change vs veh, CPM / RFU, DNAJB6 / Fold change vs veh, DNAJB6 / RFU, CACNA2D3 / Fold change vs veh, CACNA2D3 / RFU, DTX4 / Fold change vs veh, DTX4 / RFU, TFCP2 / Fold change vs veh, TFCP2 / RFU, GMCL1 /// GMCL1P1 / Fold change vs veh, GMCL1 /// GMCL1P1 / RFU, AEBP2 / Fold change vs veh, AEBP2 / RFU, SNHG1 /// SNORD22 /// SNORD25 /// SNORD26 /// SNORD27 /// SNORD28 /// SNORD29 /// SNORD31 / Fold change vs veh, SNHG1 /// SNORD22 /// SNORD25 /// SNORD26 /// SNORD27 /// SNORD28 /// SNORD29 /// SNORD31 / Fold change (Aza/veh), C12orf56 (ProbeSet 11735607_a_at) / Fold change (ACY-1035/veh), C12orf56 (ProbeSet 11735607_a_at) / Fold change (Aza/veh), FGFR1OP (ProbeSet 11751329_s_at) / Fold change (ACY-1035/veh), FGFR1OP (ProbeSet 11751329_s_at) / Fold change (Aza/veh), VPS36 (ProbeSet 11739960_a_at) / Fold change (ACY-1035/veh), VPS36 (ProbeSet 11739960_a_at) / RFU SYPL1 (11715823_x_at) / Fold change /veh SYPL1 (11715823_x_at) / RFU IGFBP7 (11715501_s_at) / Fold change /veh IGFBP7 (11715501_s_at) / RFU REEP3 (11722064_at) / Fold change /veh REEP3 (11722064_at) / RFU IGLL1 (11728026_x_at) / Fold change /veh IGLL1 (11728026_x_at): dose or concentration left out as unconfirmed. Particulars: MV-4-11 cells, 48 hours.

Take `Nc1ncn([C@@H]2O[C@H](CO)[C@@H](O)[C@H]2O)c(=O)n1` [azacitidine]: the “Fold change /veh KRTAP10-11 (11738290_x_at)” value stood at 1.14.
